{"source": "paper PMC7377474", "about": "“Preclinical characterization of CPL302-253, a selective inhibitor of PI3Kδ, as the candidate for the inhalatory treatment and prevention of Asthma” (PLoS ONE, 2020)", "key": {"PI3Kδ": {"target": "T1, PI3Kδ (Homo sapiens, UniProt O00329)", "T1 construct": "purchased Discoverex (KINOMEscan service)", "T1 sequence (O00329 whole entry)": "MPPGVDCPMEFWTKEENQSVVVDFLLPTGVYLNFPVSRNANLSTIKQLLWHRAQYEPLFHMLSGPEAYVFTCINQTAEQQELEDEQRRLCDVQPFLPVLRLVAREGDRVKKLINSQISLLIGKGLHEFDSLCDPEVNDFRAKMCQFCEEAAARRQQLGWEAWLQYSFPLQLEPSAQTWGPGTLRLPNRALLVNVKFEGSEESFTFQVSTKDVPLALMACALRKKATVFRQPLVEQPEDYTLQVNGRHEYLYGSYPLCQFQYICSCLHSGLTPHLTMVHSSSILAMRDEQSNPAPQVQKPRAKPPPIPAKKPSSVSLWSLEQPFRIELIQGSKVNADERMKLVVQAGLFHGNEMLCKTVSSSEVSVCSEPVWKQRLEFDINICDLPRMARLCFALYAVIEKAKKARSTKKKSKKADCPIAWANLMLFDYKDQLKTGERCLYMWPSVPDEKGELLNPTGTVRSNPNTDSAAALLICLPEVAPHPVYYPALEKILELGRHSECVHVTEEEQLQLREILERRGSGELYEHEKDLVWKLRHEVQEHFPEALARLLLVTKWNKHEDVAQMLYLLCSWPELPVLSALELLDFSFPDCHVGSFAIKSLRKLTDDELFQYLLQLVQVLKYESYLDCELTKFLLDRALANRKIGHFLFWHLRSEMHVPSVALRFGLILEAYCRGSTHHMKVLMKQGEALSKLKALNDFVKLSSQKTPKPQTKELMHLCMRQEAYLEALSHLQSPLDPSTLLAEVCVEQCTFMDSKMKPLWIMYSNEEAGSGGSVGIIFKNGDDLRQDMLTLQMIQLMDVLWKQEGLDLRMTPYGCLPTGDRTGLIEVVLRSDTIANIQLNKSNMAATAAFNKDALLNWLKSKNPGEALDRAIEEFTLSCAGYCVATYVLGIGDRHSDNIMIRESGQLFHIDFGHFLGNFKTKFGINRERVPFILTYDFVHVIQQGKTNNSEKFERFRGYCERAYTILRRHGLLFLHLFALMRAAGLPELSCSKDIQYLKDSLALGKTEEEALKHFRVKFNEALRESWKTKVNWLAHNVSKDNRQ", "test": "KINOMEScan competitive binding assay, Kd", "procedure": "(§1) The inhibitor-kinase binding affinity was assessed in KINOMEscan™ assay (Discoverex) according to service provider’s protocol. In brief, in this binding assay the studied compound in solution is incubated with DNA-tagged kinase and kinase active-site directed ligand bound to the beads. The compound competes for binding to kinase with the immobilized ligand. After incubation beads are removed from the solution and kinase bound to ligand is quantified by qPCR. The strength of compound binding is determined based on its ability to block kinase-ligand binding. 11-point 3-fold serial dilution of CPL302-253 was used in order to determine its binding constants (Kd) against different isotypes of class I PI3K. The single concentration of CPL302-253 was used in order to determine its specificity in abroad panel of 468 human kinases. The measure of compounds affinity to each kinase in the panel was the percentage of kinase activity inhibition by tested ligand in comparison to the control."}, "PI3Kγ [1]": {"target": "T2, PI3Kγ (Homo sapiens, UniProt P48736)", "T2 sequence (P48736 whole entry)": "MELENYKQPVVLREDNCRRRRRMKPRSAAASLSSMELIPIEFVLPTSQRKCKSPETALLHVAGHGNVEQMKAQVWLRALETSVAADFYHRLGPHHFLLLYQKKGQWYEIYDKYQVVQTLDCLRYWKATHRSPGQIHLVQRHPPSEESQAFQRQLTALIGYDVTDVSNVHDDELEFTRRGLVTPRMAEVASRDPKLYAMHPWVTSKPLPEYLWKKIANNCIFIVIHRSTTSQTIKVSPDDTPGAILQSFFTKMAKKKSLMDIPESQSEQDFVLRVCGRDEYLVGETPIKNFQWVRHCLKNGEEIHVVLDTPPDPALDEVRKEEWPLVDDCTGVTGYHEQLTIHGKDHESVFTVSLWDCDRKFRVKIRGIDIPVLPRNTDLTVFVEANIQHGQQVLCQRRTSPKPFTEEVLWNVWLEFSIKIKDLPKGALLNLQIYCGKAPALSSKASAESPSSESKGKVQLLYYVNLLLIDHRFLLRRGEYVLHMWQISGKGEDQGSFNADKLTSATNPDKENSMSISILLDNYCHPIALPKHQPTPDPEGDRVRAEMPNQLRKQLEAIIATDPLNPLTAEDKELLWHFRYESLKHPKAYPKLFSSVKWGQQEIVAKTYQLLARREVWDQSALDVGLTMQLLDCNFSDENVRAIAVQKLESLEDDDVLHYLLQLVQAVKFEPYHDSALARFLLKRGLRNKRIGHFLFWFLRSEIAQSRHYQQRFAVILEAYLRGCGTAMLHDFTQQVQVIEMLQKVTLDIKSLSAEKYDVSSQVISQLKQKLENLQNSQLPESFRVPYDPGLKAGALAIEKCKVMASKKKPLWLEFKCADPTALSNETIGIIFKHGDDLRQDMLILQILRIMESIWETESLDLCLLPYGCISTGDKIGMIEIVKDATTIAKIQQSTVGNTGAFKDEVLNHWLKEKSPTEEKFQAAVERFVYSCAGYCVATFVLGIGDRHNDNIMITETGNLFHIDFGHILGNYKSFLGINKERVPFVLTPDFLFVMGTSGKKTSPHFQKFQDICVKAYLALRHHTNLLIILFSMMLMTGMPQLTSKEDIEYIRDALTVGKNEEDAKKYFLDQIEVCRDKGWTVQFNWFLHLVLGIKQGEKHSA", "test": "KINOMEScan competitive binding assay, Kd", "parameters": "purchased Discoverex (KINOMEscan service)", "procedure": "as §1"}, "PI3Kβ [2]": {"target": "T3, PI3Kβ (Homo sapiens, UniProt P42338)", "test": "KINOMEScan competitive binding assay, Kd", "parameters": "purchased Discoverex (KINOMEscan service)", "procedure": "as §1"}, "PI3Kα [3]": {"target": "T4, PI3Kα (Homo sapiens, UniProt P42336)", "test": "KINOMEScan competitive binding assay, Kd", "parameters": "purchased Discoverex (KINOMEscan service)", "procedure": "as §1"}, "B cells": {"test_system": "B cells", "test": "B lymphocyte activation assay", "details": "for CD25 expression (Fig 3A), single replicates / ki-67 expression (Fig 3B), single replicates: activated B cells", "method": "B cells were isolated from human frozen PBMCs using EasySep Human CD19 Positive Isolation Kit (StemCell Technologies) according to manufacturers’ protocol. The cells were seeded in AIM V medium (Gibco). […] After 72 hours of culture the cells were stained with antibody againstCD25 (BC96, eBioscience) and ki-67 (Clone 20Raj1, Invitrogen) and analysed on FACSCalibur."}, "[4]": {"test_system": "HDM induced asthma mouse model", "test": "HDM-steroid insensitive asthma mice model", "details": "for IL-33 concentration in BAL (Fig 7B), single animals / eosinophils number in BAL (Fig 7A), single animals: day 15"}, "[5]": {"test": "Pharmacokinetics after intratracheal instillation", "type": "in vivo", "details": "mouse", "procedure": "Female Balb/c mouse (20–25 g bodyweight) were purchased from Nofer Institute (Lodz, Poland). Animals were given 0.3 mg/kg or 1 mg/kg single dose of CPL302-253 by intratracheal instillation. The compound was suspended in 0.2% DMSO in saline. 5 animals per time-point were sacrificed 10 min, 30 min, 1 h, 2 h, 4 h, 7 h and 12 h after compound administration. The blood was collected by heart puncture to K2EDTA containing tubes and plasma samples were prepared by centrifugation. The Bronchoalveolar Lavage Fluid (BALF) was collected by flushing the lungs 2 times with 1 ml of saline. The lungs were homogenized in 10% DMSO solution in water. 3ml of the solution were used for 1 g of lung tissue. The samples were purified using acetonitrile and concentration of CPL302-253 was measured by LC-MS/MS with internal standard. The concentration of the compound is given per ml of plasma and BALF or g of lung tissue.\nLC-MS analysis of PK samples was performed using 1290 Infinity II UPLC (Agilent) with 6460 Triple Quad MS (Agilent) in the positive mode and MRM mode. […] Samples were eluted using a timed, linear gradient from 10% B at 0.3 min to 95% B at 1.5 min, then back to 10% at 2.5 min. The column was equilibrated for up to 5 min. The flow rate was 0.4 mL/min. The injection volume was 5 μL. Calibration curve was prepared in the range from 1 ng/mL to 2000 ng/mL by spiking 45 μL of plasma with 5 μL of concentrated standard solution. All plasma based standard solutions and studied samples (50 μL) were subsequently extracted with 150 μL of acetonitrile containing donepezil as internal standard and centrifuged to provide supernatant ready for analysis."}, "PI3Kγ [6]": {"target": "T2, PI3Kγ", "test": "ADP-Glo Kinase Assay", "type": "biochemical", "parameters": "purchased Merck Millipore", "procedure": "(§2) The potency and selectivity of CPL302-253 against different isotypes of class I PI3K were assessed using ADP-Glo Kinase Assay (Promega) according to manufacturer’s protocol. PI3Kα, PI3Kβ, PI3Kδ, PI3Kγ were purchased from Merck Millipore. The inhibition of examined kinases activity was evaluated by measuring their ability to converse ATP to ADP in the presence of decreasing doses of tested compound (from 400 μM to 0,00004 μM). Kinases were mixed with 1 mM PIP2:PS substrate (Phosphoinositol-4,5-bisphosphate (PIP2) lipid vesicles with phosphoserine (PS), Thermofisher Scientific) and 30 μM ATP in an assay buffer (50 mM HEPES pH 7.5,50 mM NaCl, 3 mM MgCl2, 25 μg/ml BSA). The mixture was incubated in the dark for 1 h at 25°C (PI3Kα and PI3Kδ) or at 30°C (PI3Kβ, PI3Kγ). Next ADP-Glo reagent 1 was added to stop the reaction and remove any remaining ATP. The samples were incubated for 40 min at 25°C. Subsequently the ADP-Glo reagent 2 was added and reactions were incubated for 40 min at 25°C. Finally, luminescence was assessed and the IC50 was calculated."}, "PI3Kβ [7]": {"target": "T3, PI3Kβ", "test": "ADP-Glo Kinase Assay", "type": "biochemical", "parameters": "purchased Merck Millipore", "procedure": "as §2"}, "PI3Kα [8]": {"target": "T4, PI3Kα", "test": "ADP-Glo Kinase Assay", "type": "biochemical", "parameters": "purchased Merck Millipore", "procedure": "as §2"}, "[9]": {"details": "72 h, concentration 1 (unit not given)"}, "[10]": {"details": "72 h, concentration 10 (unit not given)"}, "[11]": {"details": "72 h, concentration 100 (unit not given)"}, "[12]": {"details": "72 h, concentration 1000 (unit not given)"}, "[13]": {"details": "72 h, concentration 10000 (unit not given)"}, "[14]": {"details": "HDM + 0.5 mg/kg i.n., 0.5 mg/kg"}, "[15]": {"details": "i.n. on day 12, 13 and 14, HDM challenge day 14, BALF day 15"}}, "note": "“And” between values parts separate entries of the source, which are not always exact repeats. Equal values may be shown once.", "data": [{"smiles": "CC(C)(C)N1CCN(Cc2cc3nc(-c4cncc5[nH]ccc45)cc(N4CCOCC4)n3n2)CC1", "note": "[CPL302-253]", "values": [{"measurement": "Kd", "setting": "PI3Kδ", "value": 0.00085, "unit": "µM"}, {"measurement": "Kd", "setting": "PI3Kγ [1]", "value": 4.8, "unit": "µM"}, {"measurement": "Kd", "setting": "PI3Kβ [2]", "value": 0.39, "unit": "µM"}, {"measurement": "Kd", "setting": "PI3Kα [3]", "value": 1.9, "unit": "µM"}, {"measurement": "B cell proliferation (ki-67 expression)", "setting": "B cells; B cells activated with ODN2006 and αIgM F(ab')2, 72 h", "value": "blocked also B cell proliferation"}, {"measurement": "concentration at which inhibition of CD25 expression was observed", "setting": "B cells; B cells after BCR and TLR stimulation, 72 h", "value": 10, "unit": "nM"}, {"measurement": "CD25 expression (Fig 3A), single replicates", "setting": "B cells; [9]", "value": "68 and 59 and 72 and 57"}, {"measurement": "ki-67 expression (Fig 3B), single replicates", "setting": "B cells; [9]", "value": "46 and 43.4 and 77"}, {"measurement": "CD25 expression (Fig 3A), single replicates", "setting": "B cells; [10]", "value": "52 and 60 and 66 and 49"}, {"measurement": "ki-67 expression (Fig 3B), single replicates", "setting": "B cells; [10]", "value": "48 and 23.5 and 54"}, {"measurement": "CD25 expression (Fig 3A), single replicates", "setting": "B cells; [11]", "value": "39 and 31 and 52 and 64 and 48"}, {"measurement": "ki-67 expression (Fig 3B), single replicates", "setting": "B cells; [11]", "value": "29 and 16.5 and 35"}, {"measurement": "CD25 expression (Fig 3A), single replicates", "setting": "B cells; [12]", "value": "9 and 22 and 24 and 38 and 20"}, {"measurement": "ki-67 expression (Fig 3B), single replicates", "setting": "B cells; [12]", "value": "23 and 2.4 and 24"}, {"measurement": "CD25 expression (Fig 3A), single replicates", "setting": "B cells; [13]", "value": "4 and 3 and 11 and 6"}, {"measurement": "ki-67 expression (Fig 3B), single replicates", "setting": "B cells; [13]", "value": "5 and 1"}, {"measurement": "IL-33 concentration in BAL (Fig 7B), single animals", "setting": "[4]; [14]", "value": "1.6 and -0.3 and -1.1 and -0.8 and -4.4 and 3 and 4.4 and -0.4 and -4.7 and 1.7"}, {"measurement": "eosinophils number in BAL (Fig 7A), single animals", "setting": "[4]; [14]", "value": "32736 and 8169.96 and 5712.6 and 6975 and 20671.5 and 48073 and 6811.27 and 9495.5 and 84434.2 and 46844.4"}, {"measurement": "IL-33 concentration in BAL (Fig 7B), single animals", "setting": "[4]; HDM + 5 mg/kg i.n., 5 mg/kg", "value": "0.5 and 3 and -2.8 and 10.8 and 6.1 and 2.3 and 1 and 2.6 and 9.8"}, {"measurement": "eosinophils number in BAL (Fig 7A), single animals", "setting": "[4]; HDM + 5 mg/kg i.n., 5 mg/kg", "value": "17665.4 and 6769.78 and 17936.5 and 52878.7 and 44238.8 and 8082.51 and 80102.2 and 24189.9 and 38935.1 and 17565.7"}, {"measurement": "IL-33 production in the lungs", "setting": "[4]; [15]", "value": "effectively blocked"}, {"measurement": "eosinophil influx to the lungs", "setting": "[4]; [15]", "value": "effectively blocked"}, {"measurement": "concentration in Plasma, single animals", "setting": "[5]; 0.3 mg/kg intratracheal, time 2 h", "value": 16.45}, {"measurement": "concentration in the blood compared with the lungs", "setting": "[5]; in vivo", "value": "two orders of magnitude lower"}, {"measurement": "distribution after intratracheal administration", "setting": "[5]; in vivo", "value": "exclusively accumulated in the lung tissue and BAL with minor penetration to the circulation"}, {"measurement": "IC50", "setting": "PI3Kγ [6]", "value": 45.4, "unit": "µM"}, {"measurement": "Ratio to δ", "setting": "PI3Kγ [6]; IC50 of isoform γ to δ", "value": 3725}, {"measurement": "IC50", "setting": "PI3Kβ [7]", "value": 9.58, "unit": "µM"}, {"measurement": "Ratio to δ", "setting": "PI3Kβ [7]; IC50 of isoform β to δ", "value": 785}, {"measurement": "IC50", "setting": "PI3Kα [8]", "value": 4.52, "unit": "µM"}, {"measurement": "Ratio to δ", "setting": "PI3Kα [8]; IC50 of isoform α to δ", "value": 371}]}]}
